Measurements taken from patent US12698304B2, “Triterpene saponin variants, methods of synthesis and use thereof” (Memorial Sloan-Kettering Cancer Center, priority 2015, dated 2026).

System: mice immunized with a four-antigen cocktail (MUC1-KLH, GD3-KLH, OVA)
Assay: preclinical mouse vaccination model; antibody titers by ELISA
Assay type: in vivo
Settings: 5 μg and 20 μg dose of saponin variant (both doses); data not shown
Protocol: Panels a-c: anti-KLH (IgG) (Panel a), anti-OVA (IgG) (Panel b), and anti-MUC1 (IgG) (Panel c) antibody titers at 5 μg dose of each saponin variant. […] Median titer values represented as horizontal bars. Statistical significance compared to the no-adjuvant negative control assessed using unpaired Student's t-test with CI=95%: *p≤0.05, **p<0.01, ***p<0.001.
There is currently no in vitro method to measure adjuvant activity, due in part to the unknown and likely multivariate mechanisms of saponin adjuvant action. Thus, we proceeded directly to testing these QS variants in vivo in a mouse vaccination model. Cohorts of mice were immunized with the saponin variant of interest (5 or 20 μg) and a four-antigen cocktail comprising: (1) the immunogenic peptide MUC1 (prostate and breast cancer antigen, non-glycosylated tandem repeat) conjugated to a highly immunogenic carrier protein KLH (keyhole limpet hemocyanin; MUC1-KLH), (2) the poorly immunogenic ganglioside GD3 (melanoma, neuroblastoma, sarcoma antigen) conjugated to KLH (GD3-KLH), and (3) the immunogenic protein antigen ovalbumin (OVA). The antibody titers elicited against all […] antigens were evaluated by ELISA to compare the adjuvant activity of each QS analogue.

## C[C@H]1O[C@@H](OC2C(O)[C@@H](NC(=O)CCCCCCCCCCC(=O)O)C(CO)O[C@@H]2OC(=O)N[C@]23CCC(C)(C)CC2C2=CCC4C5(C)CC[C@H](O[C@@H]6OC(C(=O)O)[C@@H](O)[C@H](O[C@@H]7OC[C@@H](O)[C@H](O)C7O)C6O[C@@H]6OC(CO)[C@H](O)[C@H](O)C6O)[C@](C)(C=O)[C@@H]5CC[C@]4(C)[C@]2(C)CC3O)C(O)C(O)[C@H]1O[C@@H]1OC[C@@H](O)C(O)C1O (stereo partly drawn) [α-4]
  adjuvant activity (anti-KLH, anti-OVA, anti-MUC1 IgG antibody titers): inactive
